Assay results: patent US20250144230A1, “LINKERS FOR USE IN ANTIBODY DRUG CONJUGATES” (Orum Therapeutics, Inc., priority 2021, published 2025)
Where a SMILES comes first, the peptide text is derived from it. The star is where a group is joined. X1 = CSCCc1ccc(NC(=O)NCc2ccc3c(c2)CN(C2CCC(=O)N(CN*)C2=O)C3=O)cc1Cl; Hexanoyl(6-maleimido) = O=C1C=CC(=O)N1CCCCCC(=O)*

T1: papain (Carica papaya, UniProt P00784)
T1 sequence (P00784 134-345): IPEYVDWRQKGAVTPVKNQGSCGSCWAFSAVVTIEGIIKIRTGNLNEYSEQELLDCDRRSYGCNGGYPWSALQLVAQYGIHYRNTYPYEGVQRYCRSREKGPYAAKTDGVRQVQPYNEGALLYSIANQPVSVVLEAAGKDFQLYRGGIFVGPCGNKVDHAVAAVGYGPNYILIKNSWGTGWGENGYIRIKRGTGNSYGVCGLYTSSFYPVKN

B1: CD33-D Antibody-Compound (XL) conjugate (antibody, V domains shown)
VH: EVQLVQSGAEVKKPGSSVKVSCKASGYTITDSNIHWVRQAPGQSLEWIGYIYPYNGGTDYNQKFKNRATLTVDNPTNTAYMELSSLRSEDTAFYYCVNGNPWLAYWGQGTLVTVSS
VL: DIQLTQSPSTLSASVGDRVTITCRASESLDNYGIRFLTWFQQKPGKAPKLLMYAASNQGSGVPSRFSGSGSGTEFTLTISSLQPDDFATYYCQQTKEVPWSFGQGTKVEVK
modifications: Compound (XL) linker-payload on reduced interchain cysteine of the constant region, outside this domain; Compound (XL) linker-payload (maleimide) on reduced interchain cysteines of the constant regions, outside this domain; 8.0 Compound (XL)/antibody by LC-MS (Example 2-1)
notes: Antibody-drug conjugate (BRD4 degrader payload)
B2: CD33-D antibody (antibody, V domains shown)
VH: B1 VH
VL: B1 VL
notes: also called anti-CD33 antibody CD33-D
B3: CD33-D Antibody-Compound (XIV) conjugate (antibody, V domains shown)
VH: B1 VH
VL: B1 VL
modifications: Compound (XIV) linker-payload on reduced interchain cysteine of the constant region, outside this domain; Compound (XIV) linker-payload on reduced interchain cysteines of the constant regions, outside this domain; 7.9 Compound (XIV)/antibody by LC-MS (Example 2-2)
notes: Antibody-drug conjugate

Columns and labels:
papain = target: T1, papain; assay: Papain digestion 2 of linker-payload compounds, in vitro payload release; assay type: biochemical; conditions: for % Payload Released / By-Products: GGFG*G (payload-CH2NHC(O)CH2NH2, cleavage between two glycines of linker) / By-Products: uncleaved: 10 μM compound, papain 2 molar equivalents, 2 hours; for % Payload Released: PBS pH 7.4, 5% DMA, room temperature; for yield of desired payload released by papain (in words): papain treatment; for By-Products: GGFG*G (payload-CH2NHC(O)CH2NH2, cleavage between two glycines of linker) / By-Products: uncleaved: PBS pH 7.4, room temperature
Protocol: 10 μM of either Compound (XL), Compound (XI), Compound (XIV), Compound (XV), Compound (XII), or Compound (XVII) (PBS pH 7.4, 5% DMA co-solvent) was incubated with papain (2 molar equivalents) at room temperature for 2 hours with gentle shaking. The digests were extracted with 5 volumes of ice-cold acetonitrile and dried down, followed by reconstitution in 95:5:0.1 water:acetonitrile:formic acid. The samples were submitted for LC-MS analysis (Thermo Exploris 240) and using the appropriate reference standards, the released payload and/or incompletely cleaved linker byproducts were identified and quantified.

[1] = system: MV-4-11 human acute myeloid leukemia cells; assay: In vivo MV-4-11 subcutaneous myeloid leukemia tumor model; set-up: species or system Athymic Nude mice; conditions: 10 mg/kg IP once a day for 14 days
Protocol: Subcutaneous tumor model—MV-4-11 human acute myeloid leukemia cells (1×10^7 cells in 0.1 mL) were subcutaneously inoculated into the right flank of female Athymic Nude mice. Mice were treated with each test article when the tumor size reached 100-150 mm^3. 10 mg/kg of CD33-D antibody-Compound (XL) conjugate (in 20 mM succinate, 8% sucrose, 0.01% Tween-20 pH 5.5) was delivered by intravenous administration (IV) once a week for 2 weeks. 0.4 mg/kg of Compound (XL) (in 5% NMP, 45% PEG300, 20 mM NaPi pH 6.5) and 10 mg/kg of ARV-825 (as described in Liu, et al. Chemistry & Biology 2015, volume 22, pages 755-763) in 1.5 mg/mL, 5% Kolliphor, HS15 WFI Buffer was treated by intraperitoneal administration (IP) once a day for 14 days. Tumor size and mouse body weight were measured twice per week. Subcutaneous tumor volume (mm^3) was calculated with the following formula: (a×b^2/2) where ‘b’ is the smallest diameter and ‘a’ is the largest diameter. The study endpoint is that individual mice were euthanized following respective tumor volume ≥1,000 mm^3 or day 60, whichever came first.

β-glucuronidase = target: T2, β-glucuronidase (Escherichia coli, UniProt P05804); assay: β-Glucuronidase digestion, in vitro payload release; assay type: biochemical
T2 construct: purchased Sigma Type IX-A
T2 sequence (P05804 whole entry): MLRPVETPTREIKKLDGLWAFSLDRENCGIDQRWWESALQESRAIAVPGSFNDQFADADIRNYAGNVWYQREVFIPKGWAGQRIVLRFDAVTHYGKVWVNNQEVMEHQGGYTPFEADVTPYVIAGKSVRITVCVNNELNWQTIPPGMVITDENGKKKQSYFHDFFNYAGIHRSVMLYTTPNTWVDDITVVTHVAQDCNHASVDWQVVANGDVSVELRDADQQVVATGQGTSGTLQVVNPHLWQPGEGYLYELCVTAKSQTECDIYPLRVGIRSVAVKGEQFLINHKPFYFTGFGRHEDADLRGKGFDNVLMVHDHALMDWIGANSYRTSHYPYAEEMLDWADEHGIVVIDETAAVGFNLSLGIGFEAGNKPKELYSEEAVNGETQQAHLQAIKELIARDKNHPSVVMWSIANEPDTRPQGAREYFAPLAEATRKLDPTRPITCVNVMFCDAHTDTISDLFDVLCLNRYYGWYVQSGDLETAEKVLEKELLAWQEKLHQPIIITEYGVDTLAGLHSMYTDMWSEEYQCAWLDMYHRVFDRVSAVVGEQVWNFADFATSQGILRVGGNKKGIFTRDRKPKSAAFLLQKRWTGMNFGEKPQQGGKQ
Protocol: 10 μM Compound (XLI) was incubated with β-glucuronidase (Sigma, Type IX-A; 1 mg/mL solution in PBS, […]) and the reaction mixture was incubated at 37° C. for 3 hours with gentle shaking. The digests were extracted with 5 volumes of ice-cold acetonitrile and dried down, followed by reconstitution in 95:5:0.1 water:acetonitrile:formic acid. The samples were submitted for LC-MS analysis (Thermo Exploris 240) and using the appropriate reference standards, the released payload and/or incompletely cleaved linker byproducts were identified and quantified.

CD33 = target: T3, CD33 (UniProt P20138 18-364, limits assumed); assay: flow cytometry binding to MV4-11 cells (procedure of Example 10)
T3 construct: whole, on cells; Endogenous antigen on the cell line; also called CD33 surface antigens
T3 sequence (P20138 18-364 limits assumed): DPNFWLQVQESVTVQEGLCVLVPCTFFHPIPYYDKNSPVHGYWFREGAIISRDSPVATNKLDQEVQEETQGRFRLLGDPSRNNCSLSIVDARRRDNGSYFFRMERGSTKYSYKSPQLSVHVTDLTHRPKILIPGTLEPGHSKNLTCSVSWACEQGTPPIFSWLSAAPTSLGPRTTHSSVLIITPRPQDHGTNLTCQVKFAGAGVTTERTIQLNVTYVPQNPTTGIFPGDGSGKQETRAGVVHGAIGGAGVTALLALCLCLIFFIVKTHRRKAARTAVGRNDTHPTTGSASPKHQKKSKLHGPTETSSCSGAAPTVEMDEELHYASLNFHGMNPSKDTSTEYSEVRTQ

Molecule | % Payload Released (papain) | yield of desired payload released by papain (in words) (papain) | By-Products: GGFG*G (payload-CH2NHC(O)CH2NH2, cleavage between two glycines of linker) (papain) | By-Products: uncleaved (papain) | other results
CNCCOCCc1ccc(NC(=O)NCc2ccc3c(c2)CN(C2CCC(=O)N(CNC(=O)CNC(=O)[C@H](Cc4ccccc4)NC(=O)CNC(=O)CNC(=O)CCCCCN4C(=O)C=CC4=O)C2=O)C3=O)cc1Cl (stereo partly drawn) [Compound (XVIII), N-{[({[(1S)-1-({[({3-[5-({[(3-chloro-4-{2-[2-(methylamino)ethoxy]ethyl}phenyl)carbamoyl]amino}methyl)-1-oxo-3H-isoindol-2-yl]-2,6-dioxopiperidin-1-yl}methyl)carbamoyl]methyl}carbamoyl)-2-phenylethyl]carbamoyl}methyl)carbamoyl]methyl}-6-(2,5-dioxopyrrol-1-yl)hexanamide] | 97.8% | excellent yield | – | – | –
O=C(CCCCCN1C(=O)C=CC1=O)NCC(=O)NCC(=O)N[C@@H](Cc1ccccc1)C(=O)NCC(=O)NCC(=O)NCN1C(=O)CCC(N2Cc3c(C#CCCCNC(=O)c4ccc(NC(=O)[C@@H]5NC6(CCCCC6)[C@@]6(C(=O)Nc7cc(Cl)ccc76)[C@H]5c5cccc(Cl)c5F)cc4)cccc3C2=O)C1=O (stereo partly drawn) [Compound (XII), (3′R,4'S,5′R)-6″-chloro-4′-(3-chloro-2-fluorophenyl)-N-(4-{[5-(2-{1-[(2-{2-[(2S)-2-(2-{2-[6-(2,5-dioxopyrrol-1-yl)hexanamido]acetamido}acetamido)-3-phenylpropanamido]acetamido}acetamido)methyl]-2,6-dioxopiperidin-3-yl}-1-oxo-3H-isoindol-4-yl)pent-4-yn-1-yl]carbamoyl}phenyl)-2″-oxo-1″H-dispiro[cyclohexane-1,2′-pyrrolidine-3′,3″-indole]-5′-carboxamide] | 9.4% | lower yields of the desired payload | 57.0%, | uncleaved 33.6% | –
Cc1sc2c(c1C)C(c1ccc(Cl)cc1)=N[C@@H](CC(=O)NCCCCCC(=O)NCc1cccc3c1C(=O)N(C1CCC(=O)N(CNC(=O)CNC(=O)CNC(=O)[C@H](Cc4ccccc4)NC(=O)CNC(=O)CNC(=O)CCCCCN4C(=O)C=CC4=O)C1=O)C3=O)c1nnc(C)n1-2 (stereo partly drawn) [Compound (XIV), 6-{2-[(9S)-7-(4-chlorophenyl)-4,5,13-trimethyl-3-thia-1,8,11,12-tetraazatricyclo[8.3.0.0^{2,6}]trideca-2(6),4,7,10,12-pentaen-9-yl]acetamido}-N-[(2-{1-[(2-{2-[(2S)-2-(2-{2-[6-(2,5-dioxopyrrol-1-yl)hexanamido]acetamido}acetamido)-3-phenylpropanamido]acetamido}acetamido)methyl]-2,6-dioxopiperidin-3-yl}-1,3-dioxoisoindol-4-yl)methyl]hexanamide] | 11.6% | lower yields of the desired payload | 40.5%, | uncleaved 47.9% | –
Cc1sc2c(c1C)C(c1ccc(Cl)cc1)=N[C@@H](CC(=O)Nc1ccc(OCCOCCOCCOCCNc3cccc4c3C(=O)N(C3CCC(=O)NC3=O)C4=O)cc1)c1nnc(C)n1-2 (some centres unmarked) [ARV-825] | – | – | – | – | effect on MV-4-11 tumor growth [1]: inactive
N#Cc1ccc(O[C@H]2CC[C@H](NC(=O)c3ccc(N4CCC(CN5CCN(c6cc7c(cc6F)C(=O)N(C6CCC(=O)N(CNC(=O)CNC(=O)CNC(=O)[C@H](Cc8ccccc8)NC(=O)CNC(=O)CNC(=O)CCCCCN8C(=O)C=CC8=O)C6=O)C7=O)CC5)CC4)nn3)CC2)cc1Cl (stereo partly drawn) [Compound (XV), 6-(4-{[4-(2-{1-[(2-{2-[(2S)-2-(2-{2-[6-(2,5-dioxopyrrol-1-yl)hexanamido]acetamido}acetamido)-3-phenylpropanamido]acetamido}acetamido)methyl]-2,6-dioxopiperidin-3-yl}-6-fluoro-1,3-dioxoisoindol-5-yl)piperazin-1-yl]methyl}piperidin-1-yl)-N-[(1r,4r)-4-(3-chloro-4-cyanophenoxy)cyclohexyl]pyridazine-3-carboxamide] | 5.8% | lower yields of the desired payload | 78.3%, | uncleaved 15.8% | –
CSCCc1ccc(NC(=O)NCc2ccc3c(c2)CN(C2CCC(=O)N(CNC(=O)CNC(=O)CNC(=O)[C@H](Cc4ccccc4)NC(=O)CNC(=O)CNC(=O)CCCCCN4C(=O)C=CC4=O)C2=O)C3=O)cc1Cl (stereo partly drawn) [Compound (XVII), N-{[({[(1S)-1-[({[({[3-(5-{[({3-chloro-4-[2-(methylsulfanyl)ethyl]phenyl}carbamoyl)amino]methyl}-1-oxo-3H-isoindol-2-yl)-2,6-dioxopiperidin-1-yl]methyl}carbamoyl)methyl]carbamoyl}methyl)carbamoyl]-2-phenylethyl]carbamoyl}methyl)carbamoyl]methyl}-6-(2,5-dioxopyrrol-1-yl)hexanamide] ({Hexanoyl(6-maleimido)}-GGFGG-X1) | 10.7% | lower yields of the desired payload | 72.5%, | uncleaved 16.8% | –
Cn1cc(-c2cc(NC(=O)CCCCC(=O)NCCCCNc3cccc4c3C(=O)N(C3CCC(=O)N(CNC(=O)CNC(=O)[C@H](Cc5ccccc5)NC(=O)CNC(=O)CNC(=O)CCCCCN5C(=O)C=CC5=O)C3=O)C4=O)ccc2Oc2ccc(F)cc2F)c2cc[nH]c2c1=O.O=C(O)C(F)(F)F (stereo partly drawn) [Compound (XL), N′-[4-(2,4-difluorophenoxy)-3-{6-methyl-7-oxo-1H-pyrrolo[2,3-c]pyridin-4-yl}phenyl]-N-[4-({2-[1-({2-[(2S)-2-(2-{2-[6-(2,5-dioxopyrrol-1-yl)hexanamido]acetamido}acetamido)-3-phenylpropanamido]acetamido}methyl)-2,6-dioxopiperidin-3-yl]-1,3-dioxoisoindol-4-yl}amino)butyl]hexanediamide; trifluoroacetic acid] | 90.2% | excellent yield | – | – | –
CNCCOCCc1ccc(NC(=O)NCc2ccc3c(c2)CN(C2CCC(=O)N(CN(C)C(=O)OCc4ccc(O[C@@H]5O[C@H](C(=O)O)[C@@H](O)[C@H](O)[C@H]5O)c(NC(=O)CCNC(=O)CCN5C(=O)C=CC5=O)c4)C2=O)C3=O)cc1Cl (stereo partly drawn) [Compound (XLI), (2S,3S,4S,5R,6S)-6-[4-({[({3-[5-({[(3-chloro-4-{2-[2-(methylamino)ethoxy]ethyl}phenyl)carbamoyl]amino}methyl)-1-oxo-3H-isoindol-2-yl]-2,6-dioxopiperidin-1-yl}methyl)(methyl)carbamoyl]oxy}methyl)-2-{3-[3-(2,5-dioxopyrrol-1-yl)propanamido]propanamido}phenoxy]-3,4,5-trihydroxyoxane-2-carboxylic acid] | – | – | – | – | % Payload Released (β-glucuronidase; 10 μM compound, β-glucuronidase, 37° C., 3 hours): 90.9%; yield of desired payload released by β-glucuronidase (in words) (β-glucuronidase; β-glucuronidase treatment): excellent yield
B1 | – | – | – | – | EC50 (CD33): 0.27 nM
B2 | – | – | – | – | EC50 (CD33): 0.22 nM
B3 | – | – | – | – | EC50 (CD33): 0.22 nM
